According to ChEMBL document CHEMBL1201862, “PubChem BioAssay data set” (2004):
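The compound was tested at five concentrations on cells cultured in 96-well plates, with a 48-hour exposure period. Here, GI50 denotes the concentration required for 50% inhibition of growth.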 Calls of active or inactive are those of the source. No stated cut-off is given here; in the data, active = GI50 up to about 1.1 µM and inactive = higher.

Assays:
Experiment in all cases: DTP human tumour cell line panel, 48 h
A549 = system: A549
CAKI-1 = system: CAKI-1
HCC 2998 = system: HCC 2998
HCT-116 = system: HCT-116
HCT-15 = system: HCT-15
HL-60 = system: HL-60
IGROV-1 = system: IGROV-1
K562 = system: K562
KM-20L2 = system: KM-20L2
KM12 = system: KM12
M14 = system: M14
M19-MEL = system: M19-MEL
NCI-H23 = system: NCI-H23
NCI-H460 = system: NCI-H460
OVCAR-8 = system: OVCAR-8
SK-OV-3 = system: SK-OV-3
HOP-92 = system: HOP-92

SMILES	GI50 (A549)	GI50 (CAKI-1)	GI50 (HCC 2998)	GI50 (HCT-116)	GI50 (HCT-15) [µM]	GI50 (HL-60)	GI50 (IGROV-1)	GI50 (K562)	GI50 (KM-20L2)	GI50 (KM12)	GI50 (M14)	GI50 (M19-MEL)	GI50 (NCI-H23)	GI50 (NCI-H460)	GI50 (OVCAR-8)	GI50 (SK-OV-3)	GI50 (HOP-92)
Cc1ccc(S(=O)(=O)c2ccccc2[N+](=O)[O-])cc1	> 100 µM (inactive)	67.5 µM (inactive)	> 100 µM (inactive)	66.8 µM (inactive)	> 100	37.5 µM (inactive)	> 100 µM (inactive)	73.3 µM (inactive)	> 100 µM (inactive)	> 100 µM (inactive)	> 100 µM (inactive)	> 100 µM (inactive)	55.2 µM (inactive)	> 100 µM (inactive)	> 100 µM (inactive)	> 100 µM (inactive)	
O=C1OC(O)C(Oc2ccc(Cl)cc2)=C1Cl (stereo unspecified)	> 100 µM (inactive)	> 100 µM (inactive)	> 100 µM (inactive)	> 100 µM (inactive)	> 100	> 100 µM (inactive)	> 100 µM (inactive)	> 100 µM (inactive)	> 100 µM (inactive)	> 100 µM (inactive)	> 100 µM (inactive)	> 100 µM (inactive)	> 100 µM (inactive)	> 100 µM (inactive)	> 100 µM (inactive)	> 100 µM (inactive)	> 100 µM (inactive)
CCOC(=O)c1cn2c([nH]c3ccccc32)c(C#N)c1=O	> 100 µM (inactive)	> 100 µM (inactive)	> 100 µM (inactive)	80.4 µM (inactive)	> 100	25.8 µM (inactive)	> 100 µM (inactive)	> 100 µM (inactive)	> 100 µM (inactive)	> 100 µM (inactive)	> 100 µM (inactive)	> 100 µM (inactive)	> 100 µM (inactive)	47 µM (inactive)	> 100 µM (inactive)	> 100 µM (inactive)	> 100 µM (inactive)
CCCN1CN(C(C(=O)N[C@@H]2C(=O)N3C2SC(C)(C)C3C(=O)O)c2ccc(O)cc2)CSC1=S (stereo partly specified)		> 100 µM (inactive)		> 100 µM (inactive)	> 100	> 100 µM (inactive)	> 100 µM (inactive)	24.4 µM (inactive)	> 100 µM (inactive)	> 100 µM (inactive)	> 100 µM (inactive)	> 100 µM (inactive)	> 100 µM (inactive)	> 100 µM (inactive)	> 100 µM (inactive)	> 100 µM (inactive)	> 100 µM (inactive)
O=C1C2Nc3ccccc3SC2C(=O)N1c1cccc([N+](=O)[O-])c1 (stereo unspecified)	98.9 µM (inactive)	> 100 µM (inactive)	10.7 µM (inactive)	> 100 µM (inactive)	7.67	> 100 µM (inactive)	> 100 µM (inactive)	> 100 µM (inactive)	> 20.5 µM (inactive)	17 µM (inactive)	> 100 µM (inactive)	> 100 µM (inactive)	55.8 µM (inactive)	50.2 µM (inactive)	> 64 µM (inactive)	> 100 µM (inactive)	> 100 µM (inactive)
C/C(=N\NS(=O)(=O)c1ccccc1)c1ccc(Cl)c(Cl)c1	46.2 µM (inactive)	75.2 µM (inactive)	71.1 µM (inactive)	50.9 µM (inactive)	57	97.3 µM (inactive)	72.9 µM (inactive)	86.5 µM (inactive)	72.8 µM (inactive)	71.1 µM (inactive)	45.3 µM (inactive)	57.4 µM (inactive)	75.3 µM (inactive)	46.1 µM (inactive)	40.6 µM (inactive)	67.3 µM (inactive)	67 µM (inactive)
COC1CC(n2cnc3c(N)ncnc32)OC1CO (stereo unspecified)	> 100 µM (inactive)	> 100 µM (inactive)	> 100 µM (inactive)	> 100 µM (inactive)	> 100	> 100 µM (inactive)	> 100 µM (inactive)	> 100 µM (inactive)	> 100 µM (inactive)	> 100 µM (inactive)	> 100 µM (inactive)	> 100 µM (inactive)	81.5 µM (inactive)	> 100 µM (inactive)	> 100 µM (inactive)		> 100 µM (inactive)
COc1ccc(C2=NNC(=O)OC2c2ccccc2)cc1 (stereo unspecified)	51.5 µM (inactive)	92.3 µM (inactive)	34.1 µM (inactive)	> 100 µM (inactive)	37.7	67.5 µM (inactive)	> 100 µM (inactive)	26.7 µM (inactive)	41.2 µM (inactive)	40.9 µM (inactive)	50.7 µM (inactive)	55.7 µM (inactive)	53.5 µM (inactive)	53.2 µM (inactive)	> 100 µM (inactive)		43.6 µM (inactive)
Clc1ccccc1C1=NN(c2ccccc2)C2c3cc(Br)ccc3OCC12 (stereo unspecified)	> 100 µM (inactive)		> 100 µM (inactive)	> 100 µM (inactive)		> 100 µM (inactive)	> 100 µM (inactive)	> 100 µM (inactive)	> 100 µM (inactive)	> 100 µM (inactive)		> 100 µM (inactive)	> 100 µM (inactive)	> 100 µM (inactive)	> 100 µM (inactive)	> 100 µM (inactive)	> 100 µM (inactive)
[O-][n+]1c(-c2ccccc2)c2nc3ccccc3nc2c2ccccc21	> 100 µM (inactive)	> 100 µM (inactive)	> 100 µM (inactive)	> 100 µM (inactive)	> 100		> 100 µM (inactive)	> 100 µM (inactive)	> 100 µM (inactive)	> 100 µM (inactive)	> 100 µM (inactive)	> 100 µM (inactive)	> 100 µM (inactive)	> 100 µM (inactive)	> 100 µM (inactive)	> 100 µM (inactive)	> 100 µM (inactive)
CCOC(=O)NC(=O)c1cn(C2OC(CO)C(O)C2O)c(=O)[nH]c1=O (stereo unspecified)	> 100 µM (inactive)	> 100 µM (inactive)	> 100 µM (inactive)	> 100 µM (inactive)	> 100	> 100 µM (inactive)	> 100 µM (inactive)	> 100 µM (inactive)	> 100 µM (inactive)	> 100 µM (inactive)	> 100 µM (inactive)	> 100 µM (inactive)		> 100 µM (inactive)	> 100 µM (inactive)	> 100 µM (inactive)	
CNS(=O)(=O)NN(C)S(=O)(=O)c1ccc2ccccc2c1	> 100 µM (inactive)	> 100 µM (inactive)	> 100 µM (inactive)	> 100 µM (inactive)	> 100	> 100 µM (inactive)	> 100 µM (inactive)	> 100 µM (inactive)	> 100 µM (inactive)	> 100 µM (inactive)	> 100 µM (inactive)	> 100 µM (inactive)	> 100 µM (inactive)		> 100 µM (inactive)	> 100 µM (inactive)	
O=C1c2cccc(O)c2C(=O)c2c(O)cccc21 [DANTHRON]	56.1 µM (inactive)	33.7 µM (inactive)	88.7 µM (inactive)	49 µM (inactive)	74.8		> 100 µM (inactive)	92.9 µM (inactive)	99.1 µM (inactive)	> 100 µM (inactive)	97.7 µM (inactive)	3.66 µM (inactive)	> 100 µM (inactive)	30.3 µM (inactive)	> 100 µM (inactive)	> 100 µM (inactive)	> 100 µM (inactive)
CN(/C(=N\O)c1ccccc1)c1ccccc1	47 µM (inactive)	37.2 µM (inactive)	25.9 µM (inactive)	46.7 µM (inactive)		19.7 µM (inactive)			17.3 µM (inactive)	36.3 µM (inactive)	21.6 µM (inactive)	78.2 µM (inactive)	24.4 µM (inactive)	32.5 µM (inactive)	24.8 µM (inactive)		5.12 µM (inactive)
Fc1ccc2c(c1)SC1Oc3ccccc3-c3c1c-2nn3-c1ccccc1 (stereo unspecified)	> 100 µM (inactive)		> 100 µM (inactive)	66.8 µM (inactive)		> 100 µM (inactive)	> 100 µM (inactive)	> 100 µM (inactive)	> 100 µM (inactive)	> 100 µM (inactive)		> 100 µM (inactive)	> 100 µM (inactive)	> 100 µM (inactive)	> 100 µM (inactive)	> 100 µM (inactive)	> 100 µM (inactive)
Nc1ncnc2c1N=CN(Oc1ccccc1)N2	> 100 µM (inactive)	> 100 µM (inactive)		> 100 µM (inactive)	> 100		> 100 µM (inactive)	> 100 µM (inactive)	> 100 µM (inactive)	> 100 µM (inactive)	> 100 µM (inactive)	> 100 µM (inactive)	> 100 µM (inactive)	> 100 µM (inactive)	> 100 µM (inactive)	> 100 µM (inactive)	> 100 µM (inactive)
Cc1cc(N(CCC#N)CCC#N)ccc1/C=C(\NC(=O)/C=C/c1ccccc1)C(=O)N=[N+]=[N-]	> 100 µM (inactive)	> 100 µM (inactive)	> 100 µM (inactive)	> 100 µM (inactive)	> 100	> 100 µM (inactive)	> 100 µM (inactive)	> 100 µM (inactive)	> 100 µM (inactive)	2.91 µM (inactive)	> 100 µM (inactive)	> 100 µM (inactive)	> 100 µM (inactive)	> 100 µM (inactive)	> 100 µM (inactive)	55 µM (inactive)	
COc1ccc2cc3nc(O)cc(O)c3cc2c1OC	> 100 µM (inactive)	> 100 µM (inactive)	> 100 µM (inactive)	> 100 µM (inactive)	> 100	> 100 µM (inactive)	> 100 µM (inactive)	> 100 µM (inactive)	> 100 µM (inactive)	> 100 µM (inactive)	> 100 µM (inactive)	> 100 µM (inactive)	> 100 µM (inactive)	> 100 µM (inactive)	> 100 µM (inactive)		> 100 µM (inactive)
